PubChem BioAssay AID330 (DTP/NCI, 2004)
“And” between values parts separate entries of the source, which are not always exact repeats. Equal entries are not always repeated. Inconclusive results and toxic doses are left out. Rule for the calls: active = survival T/C of 150% or more; inactive = T/C below 125% in these data.

Tested on: P388 leukemia ip, CD2F1 mice, survival T/C
Experiment: NCI In Vivo Anticancer Drug Screen. Data for tumor model P388 Leukemia (intraperitoneal) in CD2F1 (CDF1) mice
Conditions: endpoint: median survival time, higher = longer survival
Procedure, shortened: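 Mice carrying the transplanted tumor received test compound or vehicle. Survival was recorded in each group, and the value is the treated-group measurement divided by that of the vehicle-treated control group.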

[1] = dose: 50.0 mg/kg/injection, schedule: Q01DX005 (ip), vehicle: saline with Tween-80
[2] = dose: 100.0 mg/kg/injection, schedule: Q01DX005 (ip), vehicle: saline with Tween-80
[3] = dose: 12.5 mg/kg/injection, schedule: Q01DX009 (ip), vehicle: Klucel (hydroxypropylcellulose) (HPC)
[4] = dose: 25.0 mg/kg/injection, schedule: Q01DX009 (ip), vehicle: Klucel (hydroxypropylcellulose) (HPC)
[5] = dose: 50.0 mg/kg/injection, schedule: Q01DX009 (ip), vehicle: Klucel (hydroxypropylcellulose) (HPC)
[6] = dose: 200.0 mg/kg/injection, schedule: Q01DX009 (ip), vehicle: Klucel (hydroxypropylcellulose) (HPC)
[7] = dose: 50.0 mg/kg/injection, schedule: Q01DX009 (ip), vehicle: suspension in saline
[8] = dose: 100.0 mg/kg/injection, schedule: Q01DX009 (ip), vehicle: saline
[9] = dose: 100.0 mg/kg/injection, schedule: Q01DX009 (ip), vehicle: suspension in saline
[10] = dose: 200.0 mg/kg/injection, schedule: Q01DX009 (ip), vehicle: saline
[11] = dose: 60.0 mg/kg/injection, schedule: Q01DX005 (ip), vehicle: saline with Tween-80
[12] = dose: 120.0 mg/kg/injection, schedule: Q01DX005 (ip), vehicle: saline with Tween-80
[13] = dose: 240.0 mg/kg/injection, schedule: Q01DX005 (ip), vehicle: saline with Tween-80
[14] = dose: 100.0 mg/kg/injection, schedule: Q04DX003 (ip), vehicle: saline
[15] = dose: 200.0 mg/kg/injection, schedule: Q04DX003 (ip), vehicle: saline
[16] = dose: 400.0 mg/kg/injection, schedule: Q04DX003 (ip), vehicle: saline
[17] = dose: 200.0 mg/kg/injection, schedule: Q01DX005 (ip), vehicle: saline with Tween-80
[18] = dose: 100.0 mg/kg/injection, schedule: Q01DX009 (ip), vehicle: Klucel (hydroxypropylcellulose) (HPC)
[19] = dose: 25.0 mg/kg/injection, schedule: Q01DX009 (ip), vehicle: saline
[20] = dose: 50.0 mg/kg/injection, schedule: Q01DX009 (ip), vehicle: saline

Measured: T/C

OC(c1ccccc1)(c1ccccc1)c1ccc(C[P+](c2ccccc2)(c2ccccc2)c2ccccc2)cc1
inactive: dose: 1.56 mg/kg/injection, schedule: Q01DX009 (ip), vehicle: other 101 % of control | dose: 3.13 mg/kg/injection, schedule: Q01DX009 (ip), vehicle: other 117 % of control

CN(C)c1ccnc2c1cnn2C1OC(CO)C(O)C1O (centres undefined)
inactive: dose: 25.0 mg/kg/injection, schedule: Q01DX005 (ip), vehicle: saline with Tween-80 97 % of control | [1] 108 % of control | [2] 106 % of control

O=C(Cc1ccccc1)N1CCc2cc3c(cc2/C1=C/c1cc2c(cc1Br)OCO2)OCO3
inactive: dose: 12.5 mg/kg/injection, schedule: Q01DX001 (ip), vehicle: saline + alcohol 100 % of control | dose: 25.0 mg/kg/injection, schedule: Q01DX001 (ip), vehicle: saline + alcohol 99 % of control | dose: 50.0 mg/kg/injection, schedule: Q01DX001 (ip), vehicle: saline + alcohol 100 % of control

OCCN(CCO)Cc1cccc2ccccc12
inactive: [1] 94 % of control | [2] 94 % of control

[Cr+6].[NH-]CCC[NH-].[NH-]CCC[NH-].[NH-]CCC[NH-]
inactive: dose: 200.0 mg/kg/injection, schedule: Q01DX001 (ip), vehicle: saline 95 % of control | dose: 400.0 mg/kg/injection, schedule: Q01DX001 (ip), vehicle: saline 90 % of control

Cc1nc(N)nc2c1CCC(O)S2 (centres undefined)
inactive: dose: 50.0 mg/kg/injection, schedule: Q01DX005 (ip), vehicle: saline 98 % of control | dose: 100.0 mg/kg/injection, schedule: Q01DX005 (ip), vehicle: saline 102 % of control | dose: 200.0 mg/kg/injection, schedule: Q01DX005 (ip), vehicle: saline 96 % of control

C(=C\CSc1ccccn1)/CSc1ccccn1
inactive: [3] 107 % of control | [4] 99 % of control | [5] 90 % of control and 91 % of control | [6] 91 % of control

CC1(C)CC(OP(=O)(OC2CC(C)(C)N(O)C(C)(C)C2)OC2CC(C)(C)N(O)C(C)(C)C2)CC(C)(C)N1O
inactive: dose: 100.0 mg/kg/injection, schedule: Q04DX002 (ip), vehicle: Klucel (hydroxypropylcellulose) (HPC) 92 % of control | dose: 200.0 mg/kg/injection, schedule: Q04DX002 (ip), vehicle: Klucel (hydroxypropylcellulose) (HPC) 99 % of control | dose: 400.0 mg/kg/injection, schedule: Q04DX002 (ip), vehicle: Klucel (hydroxypropylcellulose) (HPC) 104 % of control

CN(C(=S=O)c1ccc(Cl)cc1)c1ccccc1
inactive: dose: 25.0 mg/kg/injection, schedule: Q01DX009 (ip), vehicle: suspension in saline 101 % of control | [7] 95 % of control | [8] 90 % of control | [9] 105 % of control and 97 % of control | [10] 94 % of control

CC12CC(CS(=O)C1)c1ccccc1N2 (centres undefined)
inactive: dose: 100.0 mg/kg/injection, schedule: Q04DX002 (ip), vehicle: saline with Tween-80 97 % of control | dose: 200.0 mg/kg/injection, schedule: Q04DX002 (ip), vehicle: saline with Tween-80 101 % of control | dose: 400.0 mg/kg/injection, schedule: Q04DX002 (ip), vehicle: saline with Tween-80 100 % of control

COC(=O)C1(CC(=O)c2ccccn2)NC(=S)NC(=O)C1C#N (centres undefined)
inactive: [11] 100 % of control | [12] 97 % of control | [13] 97 % of control

O=C1C[CH]([Ge](=[O])[O][Ge](=[O])[CH]2CC(=O)NC(=O)N2)NC(=O)N1 (centres undefined)
inactive: dose: 15.0 mg/kg/injection, schedule: Q01DX005 (ip), vehicle: water 97 % of control | dose: 30.0 mg/kg/injection, schedule: Q01DX005 (ip), vehicle: water 99 % of control | dose: 60.0 mg/kg/injection, schedule: Q01DX005 (ip), vehicle: water 111 % of control | dose: 120.0 mg/kg/injection, schedule: Q01DX005 (ip), vehicle: water 103 % of control and 118 % of control | dose: 240.0 mg/kg/injection, schedule: Q01DX005 (ip), vehicle: water 95 % of control

Nc1nc[nH]c(=O)c1NC=O
inactive: [14] 120 % of control | [15] 100 % of control | [16] 110 % of control

N#CC(COC(=O)c1ccccc1)OC(=O)c1ccccc1 (centres undefined)
inactive: [1] 91 % of control | [2] 95 % of control | [17] 86 % of control

CS(=O)(=O)C(c1nc2n(c1O)/C(=N/C(=O)Nc1ccc(Cl)cc1)N=N2)c1nc2n(c1O)/C(=N/C(=O)Nc1ccc(Cl)cc1)N=N2
inactive: dose: 60.0 mg/kg/injection, schedule: Q01DX005 (ip), vehicle: saline 97 % of control | dose: 120.0 mg/kg/injection, schedule: Q01DX005 (ip), vehicle: saline 96 % of control | dose: 240.0 mg/kg/injection, schedule: Q01DX005 (ip), vehicle: saline 95 % of control

C=C1C(=O)OC2C1C(OC(=O)/C(=C/C)CO)CC(C)(O)C1CC=C(C)C21 (centres undefined)
inactive: dose: 11.88 mg/kg/injection, schedule: Q01DX005 (ip), vehicle: Klucel (hydroxypropylcellulose) (HPC) 109 % of control | dose: 23.75 mg/kg/injection, schedule: Q01DX005 (ip), vehicle: Klucel (hydroxypropylcellulose) (HPC) 109 % of control | dose: 47.5 mg/kg/injection, schedule: Q01DX005 (ip), vehicle: Klucel (hydroxypropylcellulose) (HPC) 102 % of control

CC1=CCC(C(C)C)C=C1 (centres undefined)
inactive: dose: 100.0 mg/kg/injection, schedule: Q01DX009 (ip), vehicle: saline with Tween-80 100 % of control | [14] 105 % of control | [15] 100 % of control | [16] 105 % of control

COc1ccc(N2CC[N+](c3ccc(N(C)C)cc3)=C2C2=[N+](c3ccc(N(C)C)cc3)CCN2c2ccc(OC)cc2)cc1
inactive: [3] 91 % of control | [4] 91 % of control | [5] 91 % of control

CC(C)(C)C(=O)OCCOCCOC(=O)c1ccccc1
inactive: [5] 95 % of control | [18] 104 % of control | [6] 102 % of control

CN(C)c1ccc(C2NC(C(=O)O)CS2)cc1 (centres undefined)
inactive: [7] 91 % of control | [9] 100 % of control | dose: 200.0 mg/kg/injection, schedule: Q01DX009 (ip), vehicle: suspension in saline 100 % of control

O=C1CN(c2cccc(Cl)c2)C(=O)CN1/N=C/c1ccc(O)c(O)c1
inactive: [1] 88 % of control | [2] 92 % of control | [17] 100 % of control

O=C(CCc1ccccc1)OC/C=C/COC(=O)c1ccccc1
inactive: [5] 102 % of control | [18] 111 % of control | [6] 106 % of control

CN(C)C(=O)On1cc(Cl)cc1C#N
inactive: dose: 6.25 mg/kg/injection, schedule: Q04DX003 (ip), vehicle: Klucel (hydroxypropylcellulose) (HPC) 102 % of control | dose: 12.5 mg/kg/injection, schedule: Q04DX003 (ip), vehicle: Klucel (hydroxypropylcellulose) (HPC) 98 % of control | dose: 25.0 mg/kg/injection, schedule: Q04DX003 (ip), vehicle: Klucel (hydroxypropylcellulose) (HPC) 100 % of control | dose: 75.0 mg/kg/injection, schedule: Q04DX003 (ip), vehicle: Klucel (hydroxypropylcellulose) (HPC) 98 % of control

COC(=O)CS(=O)(=O)CCS(=O)(=O)CC(=O)OC
inactive: dose: 12.5 mg/kg/injection, schedule: Q01DX009 (ip), vehicle: saline 99 % of control and 100 % of control | [19] 94 % of control and 98 % of control | [20] 99 % of control and 124 % of control and 98 % of control | [8] 103 % of control and 104 % of control and 113 % of control | [10] 114 % of control

O=C(O)c1c[nH]c2cc(OCc3ccc(F)cc3)ccc2c1=O
inactive: [14] 88 % of control | [15] 93 % of control | [16] 90 % of control

Cc1ccc(-n2cc(-c3ccc(Cl)cc3)c3c(N)ncnc32)cc1
inactive: [11] 105 % of control | [12] 104 % of control | [13] 88 % of control

CCN(CC)C(=O)C1CCN(Cc2c[nH]c3ccccc23)CC1
inactive: [19] 99 % of control | [20] 104 % of control | [8] 107 % of control

CCOC(=O)c1cn2ccccc2c1C(=O)OCC
inactive: [11] 108 % of control | [12] 99 % of control | [13] 92 % of control

Cn1cc2c(cc1=O)-c1nc3ccccc3c3ccnc(c13)C2=O
inactive: dose: 1.25 mg/kg/injection, schedule: Q01DX005 (ip), vehicle: other 96 % of control | dose: 2.5 mg/kg/injection, schedule: Q01DX005 (ip), vehicle: other 97 % of control | dose: 5.0 mg/kg/injection, schedule: Q01DX005 (ip), vehicle: other 92 % of control | dose: 10.0 mg/kg/injection, schedule: Q01DX005 (ip), vehicle: other 90 % of control
